Test results taken from ChEMBL document CHEMBL3991601, “The target landscape of clinical kinase drugs” (Science, 2017).
Calls of active or inactive are those of the source.

Target: Epithelial discoidin domain-containing receptor 1 (Homo sapiens, UniProt Q08345)
Also: in the data inactive means no Kd found up to 30 µM.

Epithelial discoidin domain-containing receptor 1, sequence (Q08345 whole entry, the tested form may be a part): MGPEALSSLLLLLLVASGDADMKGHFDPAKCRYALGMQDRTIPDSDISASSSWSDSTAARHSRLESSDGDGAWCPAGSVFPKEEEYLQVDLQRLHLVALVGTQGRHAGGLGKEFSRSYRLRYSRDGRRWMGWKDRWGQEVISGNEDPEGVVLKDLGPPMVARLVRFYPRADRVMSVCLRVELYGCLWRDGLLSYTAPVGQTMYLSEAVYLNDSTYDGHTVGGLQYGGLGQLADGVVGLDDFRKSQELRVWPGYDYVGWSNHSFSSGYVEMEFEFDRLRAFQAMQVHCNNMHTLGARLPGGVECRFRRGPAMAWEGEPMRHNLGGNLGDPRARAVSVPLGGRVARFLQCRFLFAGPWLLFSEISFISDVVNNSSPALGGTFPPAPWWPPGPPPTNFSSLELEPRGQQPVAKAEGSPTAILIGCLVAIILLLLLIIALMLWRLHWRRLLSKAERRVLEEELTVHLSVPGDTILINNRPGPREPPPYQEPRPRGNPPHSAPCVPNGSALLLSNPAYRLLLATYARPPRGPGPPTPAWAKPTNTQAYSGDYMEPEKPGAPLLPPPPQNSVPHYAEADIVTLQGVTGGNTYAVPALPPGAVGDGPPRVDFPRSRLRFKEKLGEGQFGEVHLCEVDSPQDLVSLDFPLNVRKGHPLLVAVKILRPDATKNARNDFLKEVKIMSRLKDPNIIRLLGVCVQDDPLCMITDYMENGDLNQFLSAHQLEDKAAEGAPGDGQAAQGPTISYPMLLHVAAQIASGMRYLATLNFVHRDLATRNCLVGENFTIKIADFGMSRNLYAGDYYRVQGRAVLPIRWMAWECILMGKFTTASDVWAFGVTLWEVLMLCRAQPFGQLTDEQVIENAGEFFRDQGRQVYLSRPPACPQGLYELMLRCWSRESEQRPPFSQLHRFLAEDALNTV

SMILES	Kd
CN1CCC(CNc2ccc3ncc(-c4cccc(OC(F)(F)F)c4)n3n2)CC1 [SGI-1776]	> 30 µM (inactive)
O=C(Nc1cccc(Cl)c1)Nc1ncc(CCNc2ncnc3ccsc23)s1 [SNS-314]	0.14 µM (active)
C[C@@H]1CN(Cc2ccc(F)cc2)[C@@H](C)CN1C(=O)c1cc2c(C(=O)C(=O)N(C)C)cn(C)c2cc1Cl [TALMAPIMOD]	> 30 µM (inactive)
CN1CCC(COc2cnc(-c3cccc(Cn4nc(-c5cccc(C#N)c5)ccc4=O)c3)nc2)CC1 [TEPOTINIB]	> 30 µM (inactive)
O=c1sn(-c2cccc3ccccc23)c(=O)n1Cc1ccccc1 [TIDEGLUSIB]	> 30 µM (inactive)
COc1cc2nccc(Oc3ccc(NC(=O)Nc4cc(C)on4)c(Cl)c3)c2cc1OC [TIVOZANIB]	0.19 µM (active)

Target: T1, Tyrosine-protein kinase Tec (Homo sapiens, UniProt P42680)
T1 sequence (P42680 whole entry): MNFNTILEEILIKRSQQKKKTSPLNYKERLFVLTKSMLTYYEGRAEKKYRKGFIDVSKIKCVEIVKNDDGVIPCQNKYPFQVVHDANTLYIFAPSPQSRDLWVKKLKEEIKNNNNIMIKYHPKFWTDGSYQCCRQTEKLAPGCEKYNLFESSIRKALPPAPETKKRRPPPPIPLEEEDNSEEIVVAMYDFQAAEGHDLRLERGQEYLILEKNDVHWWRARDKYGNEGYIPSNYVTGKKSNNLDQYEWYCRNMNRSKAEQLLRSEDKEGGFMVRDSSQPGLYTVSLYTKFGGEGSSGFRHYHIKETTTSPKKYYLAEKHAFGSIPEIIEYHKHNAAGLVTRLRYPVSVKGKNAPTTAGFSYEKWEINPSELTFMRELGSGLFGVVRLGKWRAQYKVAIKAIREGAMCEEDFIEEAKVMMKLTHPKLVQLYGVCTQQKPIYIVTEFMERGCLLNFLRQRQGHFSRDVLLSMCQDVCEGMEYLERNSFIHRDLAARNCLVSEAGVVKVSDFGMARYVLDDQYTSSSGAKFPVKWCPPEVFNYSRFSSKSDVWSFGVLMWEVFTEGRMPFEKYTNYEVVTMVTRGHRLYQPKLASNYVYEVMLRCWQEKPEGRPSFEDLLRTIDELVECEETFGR

SMILES	Kd
CN1CCC(CNc2ccc3ncc(-c4cccc(OC(F)(F)F)c4)n3n2)CC1 [SGI-1776]	> 30 µM (inactive)
O=C(Nc1cccc(Cl)c1)Nc1ncc(CCNc2ncnc3ccsc23)s1 [SNS-314]	> 30 µM (inactive)
C[C@@H]1CN(Cc2ccc(F)cc2)[C@@H](C)CN1C(=O)c1cc2c(C(=O)C(=O)N(C)C)cn(C)c2cc1Cl [TALMAPIMOD]	> 30 µM (inactive)
CN1CCC(COc2cnc(-c3cccc(Cn4nc(-c5cccc(C#N)c5)ccc4=O)c3)nc2)CC1 [TEPOTINIB]	> 30 µM (inactive)
O=c1sn(-c2cccc3ccccc23)c(=O)n1Cc1ccccc1 [TIDEGLUSIB]	> 30 µM (inactive)
COc1cc2nccc(Oc3ccc(NC(=O)Nc4cc(C)on4)c(Cl)c3)c2cc1OC [TIVOZANIB]	> 30 µM (inactive)

Target: T2, Ephrin type-B receptor 3 (Homo sapiens, UniProt P54753)
T2 sequence (P54753 whole entry): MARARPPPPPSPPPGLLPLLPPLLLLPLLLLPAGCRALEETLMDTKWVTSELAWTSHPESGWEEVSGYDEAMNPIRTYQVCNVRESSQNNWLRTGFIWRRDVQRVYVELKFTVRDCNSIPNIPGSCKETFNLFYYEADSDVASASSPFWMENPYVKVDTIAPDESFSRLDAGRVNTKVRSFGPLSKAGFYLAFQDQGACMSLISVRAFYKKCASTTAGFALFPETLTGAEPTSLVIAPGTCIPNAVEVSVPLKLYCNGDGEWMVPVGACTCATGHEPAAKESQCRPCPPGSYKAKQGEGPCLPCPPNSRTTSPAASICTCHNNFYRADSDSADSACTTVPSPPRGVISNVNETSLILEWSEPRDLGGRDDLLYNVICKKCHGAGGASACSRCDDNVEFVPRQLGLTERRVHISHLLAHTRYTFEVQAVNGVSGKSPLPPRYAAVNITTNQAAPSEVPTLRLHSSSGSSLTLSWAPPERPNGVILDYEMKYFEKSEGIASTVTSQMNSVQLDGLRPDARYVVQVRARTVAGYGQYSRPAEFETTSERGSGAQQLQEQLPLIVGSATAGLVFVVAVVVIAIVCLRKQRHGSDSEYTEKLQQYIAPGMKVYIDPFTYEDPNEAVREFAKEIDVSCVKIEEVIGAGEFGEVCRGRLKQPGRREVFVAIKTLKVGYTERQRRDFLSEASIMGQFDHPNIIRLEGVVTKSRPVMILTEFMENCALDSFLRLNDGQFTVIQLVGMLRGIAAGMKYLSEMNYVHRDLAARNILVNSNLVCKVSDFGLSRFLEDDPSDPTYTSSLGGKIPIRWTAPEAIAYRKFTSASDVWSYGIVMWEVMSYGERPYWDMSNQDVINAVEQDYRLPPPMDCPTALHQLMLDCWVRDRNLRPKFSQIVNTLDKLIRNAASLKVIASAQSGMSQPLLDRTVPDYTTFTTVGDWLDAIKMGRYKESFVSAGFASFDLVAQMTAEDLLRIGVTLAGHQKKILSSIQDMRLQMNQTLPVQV

SMILES	Kd
CN1CCC(CNc2ccc3ncc(-c4cccc(OC(F)(F)F)c4)n3n2)CC1 [SGI-1776]	> 30 µM (inactive)
O=C(Nc1cccc(Cl)c1)Nc1ncc(CCNc2ncnc3ccsc23)s1 [SNS-314]	> 30 µM (inactive)
C[C@@H]1CN(Cc2ccc(F)cc2)[C@@H](C)CN1C(=O)c1cc2c(C(=O)C(=O)N(C)C)cn(C)c2cc1Cl [TALMAPIMOD]	> 30 µM (inactive)
CN1CCC(COc2cnc(-c3cccc(Cn4nc(-c5cccc(C#N)c5)ccc4=O)c3)nc2)CC1 [TEPOTINIB]	> 30 µM (inactive)
O=c1sn(-c2cccc3ccccc23)c(=O)n1Cc1ccccc1 [TIDEGLUSIB]	> 30 µM (inactive)
COc1cc2nccc(Oc3ccc(NC(=O)Nc4cc(C)on4)c(Cl)c3)c2cc1OC [TIVOZANIB]	5.43 µM (active)

Target: T3, Heme oxygenase 2 (Homo sapiens, UniProt P30519)
T3 sequence (P30519 whole entry): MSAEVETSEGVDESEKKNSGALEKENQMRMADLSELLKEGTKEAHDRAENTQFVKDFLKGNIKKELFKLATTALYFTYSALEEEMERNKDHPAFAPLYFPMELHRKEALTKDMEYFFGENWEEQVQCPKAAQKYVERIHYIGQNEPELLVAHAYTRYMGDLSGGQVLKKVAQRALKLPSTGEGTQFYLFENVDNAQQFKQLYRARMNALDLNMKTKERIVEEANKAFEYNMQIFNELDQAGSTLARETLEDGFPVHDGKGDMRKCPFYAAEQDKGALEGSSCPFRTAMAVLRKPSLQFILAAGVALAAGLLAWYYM

SMILES	Kd
CN1CCC(CNc2ccc3ncc(-c4cccc(OC(F)(F)F)c4)n3n2)CC1 [SGI-1776]	> 30 µM (inactive)
O=C(Nc1cccc(Cl)c1)Nc1ncc(CCNc2ncnc3ccsc23)s1 [SNS-314]	> 30 µM (inactive)
C[C@@H]1CN(Cc2ccc(F)cc2)[C@@H](C)CN1C(=O)c1cc2c(C(=O)C(=O)N(C)C)cn(C)c2cc1Cl [TALMAPIMOD]	> 30 µM (inactive)
CN1CCC(COc2cnc(-c3cccc(Cn4nc(-c5cccc(C#N)c5)ccc4=O)c3)nc2)CC1 [TEPOTINIB]	> 30 µM (inactive)
O=c1sn(-c2cccc3ccccc23)c(=O)n1Cc1ccccc1 [TIDEGLUSIB]	> 30 µM (inactive)
COc1cc2nccc(Oc3ccc(NC(=O)Nc4cc(C)on4)c(Cl)c3)c2cc1OC [TIVOZANIB]	> 30 µM (inactive)

Target: T4, Dynamin-like GTPase OPA1, mitochondrial (Homo sapiens, UniProt O60313)
T4 sequence (O60313 whole entry): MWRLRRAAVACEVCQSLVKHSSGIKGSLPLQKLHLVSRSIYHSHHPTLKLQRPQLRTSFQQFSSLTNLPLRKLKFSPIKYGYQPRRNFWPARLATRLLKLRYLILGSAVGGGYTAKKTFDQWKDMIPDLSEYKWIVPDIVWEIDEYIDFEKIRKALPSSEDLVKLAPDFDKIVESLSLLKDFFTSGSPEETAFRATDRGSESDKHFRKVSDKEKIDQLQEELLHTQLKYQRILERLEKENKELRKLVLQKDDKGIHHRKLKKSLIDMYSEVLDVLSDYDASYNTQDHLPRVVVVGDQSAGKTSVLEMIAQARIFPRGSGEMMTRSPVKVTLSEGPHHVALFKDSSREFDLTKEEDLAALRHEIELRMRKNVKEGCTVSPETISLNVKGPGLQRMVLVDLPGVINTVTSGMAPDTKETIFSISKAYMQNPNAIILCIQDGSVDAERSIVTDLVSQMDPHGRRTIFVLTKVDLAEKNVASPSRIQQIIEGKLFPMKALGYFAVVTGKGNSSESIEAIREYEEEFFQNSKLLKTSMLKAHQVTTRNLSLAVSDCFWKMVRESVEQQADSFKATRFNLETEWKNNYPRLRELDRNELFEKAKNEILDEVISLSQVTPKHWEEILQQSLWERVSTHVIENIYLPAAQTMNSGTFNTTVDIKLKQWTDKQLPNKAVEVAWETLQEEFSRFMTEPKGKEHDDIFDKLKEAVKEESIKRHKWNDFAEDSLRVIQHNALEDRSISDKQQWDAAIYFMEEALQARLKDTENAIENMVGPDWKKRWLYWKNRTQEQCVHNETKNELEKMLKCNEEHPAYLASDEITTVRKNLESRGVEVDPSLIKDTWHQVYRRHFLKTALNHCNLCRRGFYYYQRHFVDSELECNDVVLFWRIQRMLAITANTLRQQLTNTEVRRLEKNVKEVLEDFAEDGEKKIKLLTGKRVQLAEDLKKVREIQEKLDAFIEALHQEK

SMILES	Kd
CN1CCC(CNc2ccc3ncc(-c4cccc(OC(F)(F)F)c4)n3n2)CC1 [SGI-1776]	> 30 µM (inactive)
O=C(Nc1cccc(Cl)c1)Nc1ncc(CCNc2ncnc3ccsc23)s1 [SNS-314]	> 30 µM (inactive)
C[C@@H]1CN(Cc2ccc(F)cc2)[C@@H](C)CN1C(=O)c1cc2c(C(=O)C(=O)N(C)C)cn(C)c2cc1Cl [TALMAPIMOD]	> 30 µM (inactive)
CN1CCC(COc2cnc(-c3cccc(Cn4nc(-c5cccc(C#N)c5)ccc4=O)c3)nc2)CC1 [TEPOTINIB]	> 30 µM (inactive)
O=c1sn(-c2cccc3ccccc23)c(=O)n1Cc1ccccc1 [TIDEGLUSIB]	> 30 µM (inactive)
COc1cc2nccc(Oc3ccc(NC(=O)Nc4cc(C)on4)c(Cl)c3)c2cc1OC [TIVOZANIB]	> 30 µM (inactive)
